# In US11572590B2, “Methods for evaluating tumor cell spheroids using 3D microfluidic cell culture device” (Dana-Farber Cancer Institute, Inc., priority 2017, dated 2023):
# Like-named read-outs stand apart in the source and are kept apart here.
# Key:
# off-target kinases [1] = molecular target: off-target kinases (Homo sapiens, UniProt P29597); assay: SelectScreen Kinase Profiling, single point inhibition and IC50 for off-target kinases; type: biochemical; settings: TYK2, ATP Km app, ZLYTE
# Description: (§1) Biochemical single point inhibition and IC50 concentrations for TBK1, IKKε (IKBKE), and off-target kinases were determined at ThermoFisher Scientific using SelectScreen Kinase Profiling Services (Madison, Wis., USA) (Tables S4A and S4B-1-7). To determine cellular potency, the human colorectal cancer carcinoma cell line HCT116 (ATCC, Manassas, Va.) was maintained in T175 flasks in complete RPMI medium; RPMI 1640 supplemented with 10% FBS, 1× Penicillin-Streptomycin solution and 1×MEM (non-essential amino acids). HCT116 cells were grown to 90-95% confluency in T175 flasks containing complete RPMI medium and transfected in bulk using Lipofectamine 2000 (Invitrogen, Carlsbad, Calif.) with 70 μg of ISG54-luciferase reporter plasmid (Elim Biopharmaceuticals Inc., Hayward, Calif.). The reporter plasmid contains a luciferase gene expression cassette under the transcriptional regulation of the promoter of the human interferon stimulated gene 54 (ISG54). Transfection of the cells was allowed to take place for 6 hours, after which the cells were harvested by treatment with 0.25% trypsin EDTA (Corning Inc., Corning, N.Y.). Trypsinized cells were added to 384-well poly-d-lysine treated black clear bottom tissue culture assay plates (Greiner Bio-One GmbH, Kremsmünster, Austria) at a density of 20,000 cells/well in 80 μL of complete RPMI medium and incubated overnight. After 16-18 hours post-transfection, the assay plates were washed with PBS (Corning Inc., Corning, N.Y.), followed by addition of 80 μL/well of serum-free RPMI 1640 medium containing 1× Penicillin-Streptomycin solution, 1×MEM and 350 nL of DMSO or titrations of Compound 1. Compound 1 titrations were generated by 1.5-fold dilution steps in two overlapping serial dilution series to generate a 40-point compound dose range. After incubation at 37° C. for 1 hour, the cells were stimulated with Poly(I:C) (InvivoGen, San Diego, Calif.) at a final concentration of 15 μg/mL in Optimem media (Life Technologies, Rockville, Md.). The assay plates were incubated for 5 hours at 37° C., followed by addition of One-Glo luciferase firefly reagent (Promega, Madison, Wis.) at 1:1 volume/well and luminescence was measured in an EnVision Multilabel Plate Reader (PerkinElmer, Santa Clara, Calif.). The EC50 values were calculated from the fit of the dose-response curves to a four-parameter equation. All EC50 values represent geometric mean values of a minimum of four determinations.
# off-target kinases [2] = molecular target: off-target kinases (Homo sapiens, UniProt P49760); assay: as above; type: biochemical; settings: CLK2, ZLYTE, ATP Km app
# Description: as §1
# off-target kinases [3] = molecular target: off-target kinases (Homo sapiens, UniProt Q9UM73, L1196M); assay: as above; type: biochemical; settings: ALKL1196M (mutant), LanthaScreen Binding
# Description: as §1
# [4] = system: human CD4+ and CD8+ T cells; assay: IL-2 secretion by anti-CD3/anti-CD28 stimulated T cells; type: cell-based; settings: dose-titration, 24 hours
# Description: Freshly isolated human CD4+ and CD8+ T cells were obtained from AllCells (Alameda, Calif., USA). Cells were spun down and resuspended in serum free Xvivo15 media (Lonza Walkersville, Inc., Chicago, Ill., USA) supplemented with 5 ng/mL […] and incubated overnight at 37° C. Cells were plated on anti-CD3 coated plates (5 μg/mL OKT3, eBioscience, Dallas, Tex., USA, overnight) with 2 μg/mL anti-CD28 (eBioscience, Dallas, Tex., USA). Cells are treated in replicate plates with a dose-titration of Compound 1 for 24 hours for IL-2 and 96 hours for IFNγ. IL-2 and IFNγ in the supernatant were measured using single- or multi-plex immunoassay (Mesoscale Discovery, Rockville, Md., USA). Jurkat T cell leukemia cells (clone E61 obtained from ATCC) plated on anti-CD3 coated plates were treated with a dose titration of Compound 1 for 24 hours. IL-2 in the supernatant was measured as described above.
# off-target kinases [5] = molecular target: off-target kinases (Homo sapiens, UniProt P36888); assay: SelectScreen Kinase Profiling, single point inhibition and IC50 for off-target kinases; type: biochemical; set-up: other: FLT3 ITD; 1000 μM; settings: FLT3 ITD; 1000 μM; LanthaScreen Binding
# Description: as §1, with “Compound 1 titrations were generated by 1.5-fold dilution steps in two overlapping serial dilution series to generate a 40-point compound dose range. After incubation at 37° C. for 1 hour, the cells were stimulated with Poly(I:C) (InvivoGen, San Diego, Calif.) at a final concentration of 15 μg/mL in Optimem media (Life Technologies, Rockville, Md.).” left out, “All EC50 values represent geometric mean values of a minimum of four determinations.” left out
# off-target kinases [6] = molecular target: off-target kinases (Homo sapiens, UniProt P07948); assay: as above; type: biochemical; set-up: other: LYN B; 1000 μM; ATP Km app; ZLYTE; settings: LYN B, ATP Km app, ZLYTE
# Description: as §1, with “Compound 1 titrations were generated by 1.5-fold dilution steps in two overlapping serial dilution series to generate a 40-point compound dose range. After incubation at 37° C. for 1 hour, the cells were stimulated with Poly(I:C) (InvivoGen, San Diego, Calif.) at a final concentration of 15 μg/mL in Optimem media (Life Technologies, Rockville, Md.).” left out, “All EC50 values represent geometric mean values of a minimum of four determinations.” left out
# Chain of off-target kinases (Homo sapiens, UniProt Q9UM73, L1196M) (Q9UM73 19-1620 L1196M): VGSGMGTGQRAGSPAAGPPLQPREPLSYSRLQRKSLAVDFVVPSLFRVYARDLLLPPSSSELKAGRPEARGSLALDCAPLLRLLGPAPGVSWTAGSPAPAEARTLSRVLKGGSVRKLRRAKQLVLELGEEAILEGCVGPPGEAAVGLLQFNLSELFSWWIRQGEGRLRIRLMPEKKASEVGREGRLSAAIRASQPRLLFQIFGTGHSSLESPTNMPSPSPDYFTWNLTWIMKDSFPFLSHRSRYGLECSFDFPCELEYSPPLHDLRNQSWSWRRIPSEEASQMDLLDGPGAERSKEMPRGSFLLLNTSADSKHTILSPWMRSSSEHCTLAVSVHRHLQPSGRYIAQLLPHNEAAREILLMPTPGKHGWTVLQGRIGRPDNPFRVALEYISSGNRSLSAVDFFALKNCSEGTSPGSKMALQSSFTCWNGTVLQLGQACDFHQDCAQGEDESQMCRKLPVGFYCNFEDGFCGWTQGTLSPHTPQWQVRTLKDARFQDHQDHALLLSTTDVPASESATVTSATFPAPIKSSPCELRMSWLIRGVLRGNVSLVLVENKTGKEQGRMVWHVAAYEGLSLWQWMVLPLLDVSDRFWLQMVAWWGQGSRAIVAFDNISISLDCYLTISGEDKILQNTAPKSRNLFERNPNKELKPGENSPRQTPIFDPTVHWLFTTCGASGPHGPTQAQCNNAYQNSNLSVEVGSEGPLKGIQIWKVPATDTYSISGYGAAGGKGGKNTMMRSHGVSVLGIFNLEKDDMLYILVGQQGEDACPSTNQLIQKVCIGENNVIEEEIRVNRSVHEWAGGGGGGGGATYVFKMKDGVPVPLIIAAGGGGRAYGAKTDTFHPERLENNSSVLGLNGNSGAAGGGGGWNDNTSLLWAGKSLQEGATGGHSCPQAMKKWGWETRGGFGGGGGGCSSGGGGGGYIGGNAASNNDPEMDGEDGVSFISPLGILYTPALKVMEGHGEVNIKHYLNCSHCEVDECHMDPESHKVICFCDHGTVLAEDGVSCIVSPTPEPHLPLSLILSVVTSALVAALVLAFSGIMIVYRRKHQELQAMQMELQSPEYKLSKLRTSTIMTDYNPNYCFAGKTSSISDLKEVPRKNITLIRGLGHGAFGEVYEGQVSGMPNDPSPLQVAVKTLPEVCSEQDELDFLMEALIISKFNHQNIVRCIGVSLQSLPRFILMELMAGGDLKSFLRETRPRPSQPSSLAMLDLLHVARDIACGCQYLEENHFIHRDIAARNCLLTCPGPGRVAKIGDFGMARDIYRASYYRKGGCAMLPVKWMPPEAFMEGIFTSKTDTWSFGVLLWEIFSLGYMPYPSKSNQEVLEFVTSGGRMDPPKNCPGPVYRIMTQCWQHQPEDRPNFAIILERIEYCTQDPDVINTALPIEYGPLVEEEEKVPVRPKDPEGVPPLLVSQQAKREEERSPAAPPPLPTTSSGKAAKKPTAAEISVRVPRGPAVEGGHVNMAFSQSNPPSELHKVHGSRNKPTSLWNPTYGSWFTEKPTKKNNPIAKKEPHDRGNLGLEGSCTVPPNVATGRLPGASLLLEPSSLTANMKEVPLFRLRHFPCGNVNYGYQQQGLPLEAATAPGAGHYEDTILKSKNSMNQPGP
# Chain of off-target kinases (Homo sapiens, UniProt P49760) (P49760 whole entry): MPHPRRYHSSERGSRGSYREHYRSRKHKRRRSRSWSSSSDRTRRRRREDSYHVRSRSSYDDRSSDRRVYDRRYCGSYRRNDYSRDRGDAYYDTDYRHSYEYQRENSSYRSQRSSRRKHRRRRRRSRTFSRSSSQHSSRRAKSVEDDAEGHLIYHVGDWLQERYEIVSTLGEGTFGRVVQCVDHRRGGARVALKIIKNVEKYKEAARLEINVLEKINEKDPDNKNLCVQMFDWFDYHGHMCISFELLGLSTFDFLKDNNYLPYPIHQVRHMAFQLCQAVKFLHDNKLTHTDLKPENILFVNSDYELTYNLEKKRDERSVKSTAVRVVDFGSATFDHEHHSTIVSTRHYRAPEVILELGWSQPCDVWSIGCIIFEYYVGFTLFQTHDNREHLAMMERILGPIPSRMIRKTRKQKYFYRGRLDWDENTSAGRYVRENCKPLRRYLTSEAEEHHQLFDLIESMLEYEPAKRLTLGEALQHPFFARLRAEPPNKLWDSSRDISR
# Chain of off-target kinases (Homo sapiens, UniProt P07948) (P07948 1-491 isoform P07948-2): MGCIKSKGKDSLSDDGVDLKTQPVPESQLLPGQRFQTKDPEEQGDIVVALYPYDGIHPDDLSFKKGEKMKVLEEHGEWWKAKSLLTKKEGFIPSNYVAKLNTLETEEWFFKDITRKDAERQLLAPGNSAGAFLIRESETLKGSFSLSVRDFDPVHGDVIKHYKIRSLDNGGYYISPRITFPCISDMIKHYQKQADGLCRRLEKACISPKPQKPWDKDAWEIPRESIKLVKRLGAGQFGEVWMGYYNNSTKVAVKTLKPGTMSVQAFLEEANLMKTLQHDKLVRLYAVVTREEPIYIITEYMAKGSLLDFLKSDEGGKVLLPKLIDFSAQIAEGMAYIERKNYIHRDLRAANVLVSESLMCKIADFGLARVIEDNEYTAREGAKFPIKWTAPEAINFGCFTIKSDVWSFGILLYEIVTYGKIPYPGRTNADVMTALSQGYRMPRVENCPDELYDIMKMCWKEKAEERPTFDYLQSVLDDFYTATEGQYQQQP
# Chain of off-target kinases (Homo sapiens, UniProt P29597) (P29597 whole entry): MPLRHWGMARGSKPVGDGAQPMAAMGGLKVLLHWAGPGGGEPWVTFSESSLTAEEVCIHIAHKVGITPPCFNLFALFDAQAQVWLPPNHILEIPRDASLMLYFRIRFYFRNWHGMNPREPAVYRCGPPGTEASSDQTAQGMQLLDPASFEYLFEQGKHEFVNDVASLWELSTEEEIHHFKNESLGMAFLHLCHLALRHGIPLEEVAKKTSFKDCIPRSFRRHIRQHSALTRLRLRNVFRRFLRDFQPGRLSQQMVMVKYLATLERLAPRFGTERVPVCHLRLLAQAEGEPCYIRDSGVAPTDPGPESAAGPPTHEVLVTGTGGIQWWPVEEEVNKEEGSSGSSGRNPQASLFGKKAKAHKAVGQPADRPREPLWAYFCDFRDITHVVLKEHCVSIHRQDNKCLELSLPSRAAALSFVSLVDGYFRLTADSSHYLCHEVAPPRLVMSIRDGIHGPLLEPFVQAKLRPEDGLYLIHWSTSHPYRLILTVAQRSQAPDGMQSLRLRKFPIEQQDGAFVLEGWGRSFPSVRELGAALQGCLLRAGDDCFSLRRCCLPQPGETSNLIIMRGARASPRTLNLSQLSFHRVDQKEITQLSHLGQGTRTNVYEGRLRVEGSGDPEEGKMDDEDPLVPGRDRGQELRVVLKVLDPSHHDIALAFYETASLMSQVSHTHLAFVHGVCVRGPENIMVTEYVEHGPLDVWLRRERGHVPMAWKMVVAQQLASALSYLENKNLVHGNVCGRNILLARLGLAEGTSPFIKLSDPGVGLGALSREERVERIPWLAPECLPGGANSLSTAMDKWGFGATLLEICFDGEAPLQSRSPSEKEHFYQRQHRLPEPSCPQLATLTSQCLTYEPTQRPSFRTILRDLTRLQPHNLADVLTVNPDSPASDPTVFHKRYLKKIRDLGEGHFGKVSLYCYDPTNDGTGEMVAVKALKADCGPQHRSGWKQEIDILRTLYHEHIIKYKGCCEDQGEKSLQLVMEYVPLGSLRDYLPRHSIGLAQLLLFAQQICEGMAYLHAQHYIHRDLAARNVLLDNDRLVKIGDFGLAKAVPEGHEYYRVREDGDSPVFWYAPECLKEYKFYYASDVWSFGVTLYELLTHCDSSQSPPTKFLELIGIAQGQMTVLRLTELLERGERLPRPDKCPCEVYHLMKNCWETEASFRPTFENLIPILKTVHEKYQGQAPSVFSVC
compound,measurement,setting,value
"N#Cc1cc(-c2ncnc(Nc3ccc(N4CCN(C5COC5)CC4)cc3)n2)ccc1OC1CCOCC1 [Compound 1, 5-(4-((4-(4-(oxetan-3-yl)piperazin-1-yl)phenyl)amino)-1,3,5-triazin-2-yl)-2-((tetrahydro-2H-pyran-4-yl)oxy)benzonitrile]",inhibition,off-target kinases [1]; read-out: % Inhibition 1,65%
same,inhibition,off-target kinases [1]; read-out: % Inhibition 2,64%
same,inhibition,off-target kinases [1]; read-out: % Inhibition Avg,64%
same,inhibition,off-target kinases [2]; read-out: % Inhibition 1,5%
same,inhibition,off-target kinases [2]; read-out: % Inhibition 2,9%
same,inhibition,off-target kinases [2]; read-out: % Inhibition Avg,7%
same,inhibition,off-target kinases [3]; read-out: % Inhibition 1,1%
same,inhibition,off-target kinases [3]; read-out: % Inhibition 2,9%
same,inhibition,off-target kinases [3]; read-out: % Inhibition Avg,5%
same,secretion of IL-2 from purified CD4+ and CD8+ T cells,[4],enhanced secretion
same,% Inhibition 1,off-target kinases [5],64%
same,% Inhibition 2,off-target kinases [5],62%
same,% Inhibition Avg,off-target kinases [5],63%
same,inhibition,off-target kinases [6]; read-out: % Inhibition 1,56%
same,inhibition,off-target kinases [6]; read-out: % Inhibition 2,50%
same,inhibition,off-target kinases [6]; read-out: % Inhibition Avg,53%
